# Laboratory results published in patent US20090192169A1, “Bicyclic Benzimidazole Compounds and Their Use as Metabotropic Glutamate Receptor Potentiators” (priority 2006, published 2009).
# Target: T1, human mGluR2 (Homo sapiens, UniProt Q14416)
# T1 construct: expressed in transfected cells
# Assay: [35S]-GTPγS binding assay of mGluR2 receptor activation (allosteric activator activity)
# Type: biochemical
# Conditions: membranes from CHO cells stably expressing human mGluR2; in presence of 1 μM glutamate
# Procedure: A [^35S]-GTPγS binding assay was used to functionally assay mGluR2 receptor activation. The allosteric activator activity of compounds at the human mGluR2 receptor was measured using a [^35S]-GTPγS binding assay with membranes prepared from CHO cells which stably express the human mGluR2. The assay is based upon the principle that agonists bind to G-protein coupled receptors to stimulate GDP-GTP exchange at the G-protein. Since [^35S]-GTPγS is a non-hydrolysable GTP analog, it can be used to provide an index of GDP-GTP exchange and, thus, receptor activation. The GTPγS binding assay therefore provides a quantitative measure of receptor activation.
# Membranes were prepared from CHO cells stably transfected with human mGluR2. Membranes (30 μg protein) were incubated with test compound (3 nM to 300 μM) for 15 minutes at room temperature prior to the addition of 1 μM glutamate, and incubated for 30 min at 30° C. in 500 μl assay buffer (20 mM HEPES, 100 mM NaCl, 10 mM MgCl2), containing 30 μM GDP and 0.1 nM [^35S]-GTPγS (1250 Ci/mmol). Reactions were carried out in triplicate in 2 ml polypropylene 96-well plates. Reactions were terminated by vacuum filtration using a Packard 96-well harvester and Unifilter-96, GF/B filter microplates. The filter plates were washed 4×1.5 ml with ice-cold wash buffer ([…] sodium phosphate buffer, pH 7.4). The filter plates were dried and 35 μl of scintillation fluid (Microscint 20) was added to each well. The amount of radioactivity bound was determined by counting plates on the Packard TopCount. Data was analyzed using GraphPad Prism, and EC50 and Emax values (relative to the maximum glutamate effect) were calculated using non-linear regression.
# T1 sequence (Q14416 19-872): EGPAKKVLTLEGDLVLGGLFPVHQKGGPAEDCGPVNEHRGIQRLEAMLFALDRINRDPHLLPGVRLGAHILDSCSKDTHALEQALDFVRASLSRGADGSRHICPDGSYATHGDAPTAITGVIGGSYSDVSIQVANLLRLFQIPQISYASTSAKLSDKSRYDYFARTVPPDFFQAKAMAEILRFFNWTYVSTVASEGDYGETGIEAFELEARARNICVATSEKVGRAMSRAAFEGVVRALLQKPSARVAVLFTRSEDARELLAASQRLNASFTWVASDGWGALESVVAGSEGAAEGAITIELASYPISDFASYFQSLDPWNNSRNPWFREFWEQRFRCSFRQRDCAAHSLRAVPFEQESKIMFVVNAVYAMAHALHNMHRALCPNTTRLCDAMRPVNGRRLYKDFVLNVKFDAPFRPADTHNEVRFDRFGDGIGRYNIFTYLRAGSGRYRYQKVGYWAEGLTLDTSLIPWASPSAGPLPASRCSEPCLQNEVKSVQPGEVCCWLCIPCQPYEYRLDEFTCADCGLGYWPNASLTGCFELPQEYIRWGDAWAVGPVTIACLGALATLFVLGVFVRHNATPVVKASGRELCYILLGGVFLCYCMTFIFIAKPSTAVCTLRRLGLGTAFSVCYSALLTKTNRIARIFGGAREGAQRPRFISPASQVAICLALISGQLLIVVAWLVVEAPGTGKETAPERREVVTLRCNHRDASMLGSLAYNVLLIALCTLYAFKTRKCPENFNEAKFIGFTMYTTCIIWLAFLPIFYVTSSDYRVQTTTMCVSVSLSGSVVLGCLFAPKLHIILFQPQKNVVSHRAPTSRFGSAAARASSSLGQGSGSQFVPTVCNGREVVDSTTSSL
row,SMILES,EC50
1,"Cn1c(CN2CCN(c3ccc(Cl)c(Cl)c3)CC2)nc2ccccc21 [Example 26.8, 2-[4-(3,4-Dichloro-phenyl)-piperazin-1-ylmethyl]-1-methyl-1H-benzoimidazole]",0.187 µM
2,"Cn1c(CN2CCC(O)(c3ccc(Cl)cc3)CC2)nc2ccccc21 [Example 1.75, 4-(4-Chloro-phenyl)-1-(1-methyl-1H-benzoimidazol-2-ylmethyl)-piperidin-4-ol]",8.61 µM
3,"Cc1cccc2nc(CN3CCC(c4ccc(F)cc4)CC3)n(C)c12 [Example 1.49, 2-[4-(4-Fluoro-phenyl)-piperidin-1-ylmethyl]-1,7-dimethyl-1H-benzoimidazole]",0.0795 µM
4,"Cc1cccc2nc(CN3CCC(CCOc4ccc(F)c(F)c4)CC3)n(C)c12 [Example 1.2, 2-{4-[2-(3,4-Difluoro-phenoxy)-ethyl]-piperidin-1-ylmethyl}-1,7-dimethyl-1H-benzoimidazole]",0.057 µM
5,"CCn1c(CN2CCC(c3ccccc3)(c3ccccc3)CC2)nc2ccccc21 [Example 1.54, 2-(4,4-Diphenyl-piperidin-1-ylmethyl)-1-ethyl-1H-benzoimidazole]",1.04 µM
